Source: paper PMC3762901, “Cyclic Peptide Inhibitors of the β-Sliding Clamp in Staphylococcus aureus” (PLoS ONE, 2013)

Legend:
[1] = tested on: recA-lacZ transcriptional fusion (SOS response); experiment: SOS induction, recA-lacZ β-galactosidase; format: cell-based, Staphylococcus aureus; settings: 2 μg/ml; after 210 minutes; LB, 37°C
Method: To test whether the cessation of DNA accumulation was accompanied by induction of the SOS response we measured the effects of both peptides on induction of the recA gene. Strain MTC157 contains a recA-lacZ transcriptional fusion in its chromosome. […] The level of induction was less that that observed for the DNA damaging agent mitomycin C (about 3-fold increase after 210 minutes). It is likely that both peptides results in malfunctioning of the replisome, and this provides the signal for SOS induction in these cells.
Figure 6 Peptide III-5 and III-6 induces the SOS response in S. aureus. S. aureus strain MTH157 (recA::lacZ) was grown exponentially in LB medium at 37°C. At an optical density OD600 = 0.1, Mitomycin C or Peptides III-5/III-6 were added to final concentrations of 2 μg/ml or 50 μg/ml, respectively. At the times indicated, samples were taken and the level of β-galactosidase determined (Materials and Methods).

E. coli = experiment: Intracellular expression of cyclic DnaA1-86 in E. coli (growth, morphology); format: cell-based, Escherichia coli; settings: IntC::DnaA1-86::IntN induced with 2 mM IPTG, 30°C; effect attributed mainly to the cyclic fragment
Method: We used the SICLOPPS technology for intracellular synthesis of cyclic peptide libraries. Cyclic peptides were chosen over their linear counterparts to limit degradation by cellular proteases. We initially tested the SICLOPPS system by inserting the coding region for amino acids 1−86 (Domain I) of DnaA from E.coli between the C- and N-terminal parts of the split intein.
Figure 2 Intracellular production of cyclic DnaA1-86. Expression of IntC::DnaA1−86::IntN was induced by addition of 2 mM IPTG to cells growing exponentially at 30°C or by plating exponential growing cells on plates containing 2 mM IPTG followed by incubation at 30C. A. Intein-DnaA precursor and splice products were visualized by Western blot using polyclonal anti-DnaA antibodies. B. Growth on LB plates containing 2 mM IPTG (top) and phase-contrast images (bottom) of expressing IntC::IntN (left) or after three hours expression of IntC::DnaA1−86::IntN (right).
Because all cells contained a mix of precursor and splice product it was not clear which species were responsible for filamentation. We therefore mutated the splice site at the IntC-DnaA1−86 (IntC-HNS-DnaA1−86 to IntC-QYS-DnaA1−86) junction to prevent splicing.

## CO[C@@]12[C@H](COC(N)=O)C3=C(C(=O)C(C)=C(N)C3=O)N1C[C@@H]1N[C@@H]12 [mitomycin C]
[1]
  Increase in β-galactosidase activity (recA-lacZ): about 3 fold

B1: cyclic DnaA1−86: spliced cyclic fragment of amino acids 1−86 (Domain I) of E. coli DnaA produced by SICLOPPS (protein, UniProt P03004 1-86, looked up, fragment)
chain: MSLSLWQQCLARLQDELPATEFSMWIRPLQAELSDNTLALYAPNRFVLDWVRDKYLNNINGLLTSFCGADAPQLRFEVGTKPVTQT
modifications: cyclized by SICLOPPS
notes: spliced cyclic fragment of amino acids 1−86 (Domain I) of E. coli DnaA produced by SICLOPPS
E. coli
  Effect of intracellular expression on E. coli growth and morphology: inhibition of growth and cell filamentation
